Data set [1] in a line: Kinetics of release in vitro (rotating paddle dissolution). In kind it is physicochemical. The conditions noted are these: composition according to the invention, 100 rpm/900 ml of water. Here is the method: The study of the changes in the percentage of 5-ISMN dissolved was performed as a function of time. This test was carried out using a rotating paddle apparatus (100 rpm/900 ml of water).

Data set [2] is described as follows: Kinetics of release of the active principle in vitro as a function of pH. In kind it is physicochemical. The conditions noted are these: tablet according to the invention. Here is the method:
This study was carried out at pH values of 1.5, 4.25 and 7.2 and variable values.

Data set [3] in a line: In vivo absorption profile.
Data set [4] can be described thus: Physical properties of 5-ISMN (static electricity, flowability, sublimation, solubility). In kind it is physicochemical. The conditions noted are these: well-defined particle size fraction of 5-ISMN powder.
The conditions of data set [5]: cited from earlier work.
For data set [6] the following is noted: plasma; recorded value; cited from earlier work.
Data set [7] can be described thus: Particle size by air-jet sieve (ALPIN JET SIEVE). In kind it is physicochemical. The conditions noted are these: for particle size fraction 100 μm to 250 μm: desired profile 20 to 50%; for particle size fraction 80 μm to 100 μm: desired profile 40 to 60%; for particle size fraction larger than 500 μm: desired profile ≤ 0.5%; for particle size fraction 250 μm to 500 μm: desired profile ≤ 5%. An excerpt: The air-Jet sieve method used according to the invention to define the particle size of the 5-ISMN is a technique widely used by those skilled in the art on account of its great sensitivity and reliability, and is consequently very familiar to them. The operating conditions employed in the context of the invention will be clarified in greater detail below.
Characterization of the particle size of the 5-ISMN used according to the invention by the air-jet sieve, type ALPIN JET SIEVE, method
350 g (sic) partial air vacuum,
time 4 min from 80 to 100 μm, then 3 mm (sic) from 250 to 500 μm.
Under these conditions, three batches of 5-ISMN, A, B and C, were tested.

For `O=[N+]([O-])O[C@@H]1CO[C@H]2[C@@H]1OC[C@@H]2O` [5-ISMN, isosorbide 5-mononitrate], the “% dissolved at 0.25 hour” value in data set [1] (0.25 hour) is 5% to 20%. In addition, the “% dissolved at 1 hour” value in data set [1] (1 hour) is 20% to 40%. Further, the “% dissolved at 4 hours” value in data set [1] (4 hours) is 60% to 80%. For the same compound, in data set [1] (8 hours), the “% dissolved at 8 hours” value is recorded as not below 80%. Besides, the “kinetic profiles of release at constant pH” value in data set [2] (pH 1.5, 4.25 and 7.2) is reported as “do not differ significantly from one another”. The “dissolution profile obtained at variable pH” value in data set [2] (variable pH) is reported as “pH-independent mode of release”. Also, the “constant mean flux of in vivo absorption” value in data set [3] (calculated from mean curve of percentages of 5-ISMN absorbed) is on record as approximately 13.37 % h^-1. For the same compound, the absorption profile entry in data set [3] (mean curve for the percentages of 5-ISMN absorbed) is given as “zero order entry up to approximately the fifth hour following administration”. For the same compound, in data set [4], the electrostatic phenomena entry was “low level of electrostatic phenomena”; the flowability and compressibility result is “qualities of flowability and compressibility”; the tendency to sublime result is “far less marked tendency to sublime”. The sublimation result in data set [5] (60° C., 75% relative humidity) is “sublimation phenomenon”. For the same compound, the flowability entry in data set [5] (static electricity phenomenon, dry mixing) is “virtually zero flowability”. Besides, in data set [5] (water and buffer solutions), the “solubility in water and buffer solutions” value is on record as “very high solubility”. Moreover, in data set [6], the “minimal effective concentration (Ceff)” value was 100 ng/mL.
Turning to `O=[N+]([O-])O[C@@H]1CO[C@H]2[C@@H]1OC[C@@H]2O` [A, isosorbide 5-mononitrate], in data set [7], the “particle size fraction 100 μm to 250 μm” value is on record as 26%, the “particle size fraction 80 μm to 100 μm” value is 47.5%, the “particle size fraction larger than 500 μm” value amounted to 0.0% and the “particle size fraction 250 μm to 500 μm” value was determined as 0.0%.
For `O=[N+]([O-])O[C@@H]1CO[C@H]2[C@@H]1OC[C@@H]2O` [B, isosorbide 5-mononitrate], in data set [7], the “particle size fraction 100 μm to 250 μm” value amounted to 34.4%, the “particle size fraction 80 μm to 100 μm” value came to 48.2%, the “particle size fraction larger than 500 μm” value was 0.0% and the “particle size fraction 250 μm to 500 μm” value stood at 0.9%.
For `O=[N+]([O-])O[C@@H]1CO[C@H]2[C@@H]1OC[C@@H]2O` [C, isosorbide 5-mononitrate], in that order: 34.85%, 49.2%, 0.0% and 0.0%.

The values are drawn from patent US5334393A, “Sustained-release tablet based on isosorbide 5-mononitrate and process for preparing it” (Pierre Fabre Medicament, priority 1990, dated 1994).
